Data on 39 compounds can be found in patent US11168079B2, “Alkene compounds as farnesoid x receptor modulators” (BRISTOL-MYERS SQUIBB COMPANY, priority 2017, dated 2021).

The assay has as its target T1, human FXR (Homo sapiens, UniProt Q96RI1).
T1 sequence (Q96RI1 262-486 limits assumed): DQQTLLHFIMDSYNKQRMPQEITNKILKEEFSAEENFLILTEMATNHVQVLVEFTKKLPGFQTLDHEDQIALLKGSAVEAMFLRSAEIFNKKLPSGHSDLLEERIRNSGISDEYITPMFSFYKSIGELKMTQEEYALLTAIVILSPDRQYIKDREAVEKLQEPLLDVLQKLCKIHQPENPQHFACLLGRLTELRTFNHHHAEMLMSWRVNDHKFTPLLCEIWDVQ
The assay can be described thus: transient human FXR/Gal4-luciferase reporter assay (HLE GAL-FXR). Conditions: HEK293 cells. For orientation: Reporter assays use an easily measured gene product as a stand-in for the process of interest.

Setting [1] is: FXR EC50 (nM), Gal4-hFXR fusion reporter, Table 1.
Where [2] appears, read: HLE GAL-FXR EC50, Gal4-hFXR fusion reporter.

Description: A Gal4-hFXR fusion construct reporter system was used as the primary assay to characterize compound activity. A construct including 5 copies of the Gal4 promoter response element upstream of a firefly luciferase reporter cDNA was stably expressed in HEK293 cells. This reporter cell line was maintained in Dulbecco's Modified Eagle's medium (DMEM; Gibco) supplemented with 1% penicillin-streptomycin (P/S) solution, 500 μg/mL Zeocin and 10% charcoal/dextran-treated fetal bovine serum (cs-FBS) at 37° C. in a humidified 5% CO2 atmosphere. Another plasmid was constructed in which the human cytomegalovirus promoter in the pcDNA3.1 vector directs the expression of the cDNA encoding a fusion protein comprised of the DNA binding domain from the Gal4 transcription factor fused to the ligand binding domain from human FXR.
For compound testing, 100 nL of the compounds (serial dilutions in DMSO) are dispensed with an Echo acoustic dispenser (Labcyte) into the wells of a Corning/Costar clear bottom 384-well white plate. The transfected cells are harvested, counted, and diluted such that 10-25,000 cells in 25 μL are plated into each well of the 384-well compound assay plate. The compound-treated cells are incubated overnight at 37° C. in a humidified 5% CO2 atmosphere. The next morning 25 μL of Steady-Glo (Promega) are added to each well of the plate, the mixture is incubated for 15 min. with shaking, and luminescence is measured on an Envision (Perkin Elmer) plate reader.

As usually defined, the EC50 is the concentration needed to bring the measured effect to its halfway point. Regarding `O=C(O)c1ccc2nc(N3CCC(/C=C/c4c(-c5c(Cl)cncc5Cl)noc4C4CC4)CC3)sc2n1` [Example 85], the EC50 under setting [1] came out at 156 nM.

Regarding `COc1cc(C(=O)O)cc(-c2nnc(N3CC4C(/C=C/c5c(-c6c(Cl)cncc6Cl)noc5C5CC5)C4C3)s2)c1` (stereo not drawn) [Example 223], the EC50 under setting [1] came out at 1400 nM.

Under setting [2], `COc1cc(C(=O)O)cc(-c2nsc(N3CC4C(/C=C/c5c(-c6c(Cl)cncc6Cl)noc5C5CC5)C4C3)n2)c1` (stereo not drawn) [Example 214, (E)-3-(5-(6-(2-(5-Cyclopropyl-3-(3,5-dichloropyridin-4-yl)isoxazol-4-yl)vinyl)-3-azabicyclo[3.1.0]hexan-3-yl)-1,2,4-thiadiazol-3-yl)-5-methoxybenzoic acid] yielded an EC50 of 107 nM.

Turning to `O=C(O)c1cc(C(F)(F)F)c2cc(N3CCC(/C=C/c4c(-c5ccccc5C(F)(F)F)noc4C4CC4)CC3)ccc2n1` [Example 45], under setting [1], the response was half-maximal at 12 nM (EC50).

Consider `CC1(/C=C/c2c(-c3c(Cl)cccc3Cl)noc2C2CC2)CCN(c2nc3c(F)cc(C(=O)O)cc3s2)CC1` [Example 6, (E)-2-(4-(2-(5-Cyclopropyl-3-(2,6-dichlorophenyl)isoxazol-4-yl)vinyl)-4-methylpiperidin-1-yl)-4-fluorobenzo[d]thiazole-6-carboxylic acid], for which the half-maximal effective concentration (EC50) under setting [2] is 536 nM.

`COc1cc(C(=O)O)nc2ccc(N3CC(/C=C/c4c(-c5ccccc5OC(F)(F)F)noc4C4CC4)C3)cc12` [Example 206] gave an EC50 under setting [1] of 216 nM.

With `Cc1nc(C(=O)O)cc2ccc(N3CCC(/C=C/c4c(-c5ccccc5OC(F)(F)F)noc4C4CC4)CC3)cc12` [Example 119], the EC50 under setting [1] was found to be 96 nM.

In turn, `COc1cc(C(=O)O)nc2ccc(N3CC(/C=C/c4c(-c5ccccc5C(F)(F)F)noc4C4CC4)C3)nc12` [Example 173] had an EC50 under setting [1] of 375 nM.

As to `O=C(O)c1ccc(N2CC3C(/C=C/c4c(-c5c(Cl)cccc5Cl)noc4C4CC4)C3C2)nc1` (stereo not drawn) [Example 144], under setting [1], the EC50 came to 424 nM.

Regarding `O=C(O)c1cc(OC2CC2)c2cc(N3CC(/C=C/c4c(-c5ccccc5C(F)(F)F)noc4C4CC4)C3)ccc2n1` [Example 196], the EC50 under setting [1] came out at 53 nM.

As for `O=C(O)c1ccc2nc(N3CC4C(/C=C/c5c(-c6c(Cl)cncc6Cl)noc5C5CC5)C4C3)sc2c1` (stereo not drawn) [Example 78], a half-maximal effect under setting [1] (EC50) was put at 515 nM.

Under setting [1], `O=C(O)c1ccc(N2CCC(/C=C/c3c(-c4ccccc4OC(F)(F)F)noc3C3CC3)CC2)nc1` [Example 42] had an EC50 of 512 nM.

Take `COc1cc(C(=O)O)nc2ccc(N3CC4C(/C=C/c5c(-c6ccccc6C(F)(F)F)noc5C5CC5)C4C3)cc12` (stereo not drawn) [Example 132]: the EC50 under setting [1] came out at 16 nM.

For `O=C(O)c1cnc(N2CCC(/C=C/c3c(-c4c(Cl)cccc4Cl)noc3C3CC3)CC2)cn1` [Example 24], under setting [1], the EC50 turned out to be 127 nM.

Turning to `O=C(O)c1ccc(N2CCC(/C=C/c3c(-c4c(Cl)cccc4Cl)noc3C3CC3)CC2)nn1` [Example 18], under setting [1], it took 447 nM to reach a half-maximal effect (EC50).

The compound `O=C(O)c1cc(O[C@@H]2CCOC2)c2cc(N3CC4C(/C=C/c5c(-c6c(Cl)cncc6Cl)noc5C5CC5)C4C3)ccc2n1` (stereo partly drawn) [Example 127] had an EC50 under setting [1] of 30 nM.

Turning to `Cn1cc(C(=O)O)c(=O)c2ccc(N3CC(/C=C/c4c(-c5ccccc5C(F)(F)F)noc4C4CC4)C3)cc21` [Example 181], the EC50 under setting [1] is 400 nM.

In turn, `O=C(O)c1cc(C(F)(F)F)c2cc(N3CC[C@@H](/C=C/c4c(-c5ccccc5C(F)(F)F)noc4C4CC4)C3)ccc2n1` [Example 145] showed an EC50 under setting [1] of 419 nM.

In the case of `O=C(O)c1cc(OC(F)F)c2cc(N3CCC(/C=C/c4c(-c5ccccc5C(F)(F)F)noc4C4CC4)CC3)ccc2n1` [Example 99], the EC50 under setting [1] was determined as 3 nM.

On to `COc1cc(C(=O)O)nc2ccc(N3CC4C(/C=C/c5c(-c6cccnc6C(F)(F)F)noc5C5CC5)C4C3)cc12` (stereo not drawn) [Example 141], for which, under setting [1], it took 98 nM to reach a half-maximal effect (EC50).

The compound `O=C(O)c1ccc(-c2ccc(N3CC(/C=C/c4c(-c5ccccc5C(F)(F)F)noc4C4CC4)C3)cc2)cc1` [Example 205] registered an EC50 under setting [1] of 189 nM.

As to `O=C(O)c1cc(OCC(F)F)c2cc(N3CC4C(/C=C/c5c(-c6c(Cl)cncc6Cl)noc5C5CC5)C4C3)ccc2n1` (stereo not drawn) [Example 200], the EC50 under setting [1] is 21 nM.

For the compound `O=C(O)c1ccc2nc(N3CC4C(/C=C/c5c(-c6c(Cl)cccc6Cl)noc5C5CC5)C4C3)sc2n1` (stereo not drawn) [Example 81], the EC50 under setting [1] stood at 89 nM.

As to `O=C(O)c1cc(O[C@H]2C[C@@H](F)C2)c2cc(N3CC(/C=C/c4c(-c5ccccc5C(F)(F)F)noc4C4CC4)C3)ccc2n1` [Example 187], under setting [1], a half-maximal effect (EC50) was put at 348 nM.

`O=C(O)c1cc(C(F)(F)F)c2cc(N3CCC(/C=C/c4c(-c5c(Cl)cncc5Cl)noc4C4CC4)CC3)ccc2n1` [Example 83] gave an EC50 under setting [1] of 42 nM.

For the compound `O=C(O)c1cnc(N2CCC(/C=C/c3c(-c4c(Cl)cccc4Cl)noc3C3CC3)CC2)nc1` [Example 25], it took 83 nM to reach a half-maximal effect under setting [1] (EC50).

`Clc1cccc(Cl)c1-c1noc(C2CC2)c1/C=C/C1C2CN(c3ccc4nc(-c5nnn[nH]5)ccc4c3)CC12` (stereo not drawn) [Example 65] gave an EC50 under setting [1] of 189 nM.

Compound `O=C(O)c1cc(O[C@H]2CCOC2)c2cc(N3CC4C(/C=C/c5c(-c6c(Cl)cncc6Cl)noc5C5CC5)C4C3)ccc2n1` (stereo partly drawn) [Example 128] returned an EC50 under setting [1] of 27 nM.

With `O=C(O)c1cc(-c2ccc(N3CC(/C=C/c4c(-c5c(Cl)cncc5Cl)noc4C4CC4)C3)nc2)cc(C(F)(F)F)c1` [Example 224], under setting [1], the midpoint of the response, the EC50, lay at 166 nM.

Under setting [1], `CCOc1cc(N2CC3C(/C=C/c4c(-c5ccccc5C(F)(F)F)noc4C4CC4)C3C2)cnc1C(=O)O` (stereo not drawn) [Example 163] gave an EC50 of 424 nM.

Compound `COCCOc1cc(C(=O)O)nc2ccc(N3CC4C(/C=C/c5c(-c6c(Cl)cncc6Cl)noc5C5CC5)C4C3)cc12` (stereo not drawn) [Example 113] returned an EC50 under setting [1] of 154 nM.

As for `Clc1cccc(Cl)c1-c1noc(C2CC2)c1/C=C/C1CCN(c2ccc(-c3nnn[nH]3)cc2)CC1` [Example 56, (E)-4-(2-(1-(4-(1H-Tetrazol-5-yl)phenyl)piperidin-4-yl)vinyl)-5-cyclopropyl-3-(2,6-dichlorophenyl)isoxazole], the EC50 under setting [2] turned out to be 3 nM.

Consider `COc1cc(C(=O)O)nc2ccc(N3CC(/C=C/c4c(-c5c(Cl)cncc5Cl)noc4C4CC4)C3)cc12` [Example 166], for which the EC50 under setting [1] was determined as 29 nM.

For `O=C(O)c1ccc(N2CCC(/C=C/c3c(-c4c(Cl)cccc4Cl)noc3C3CC3)CC2)cc1Cl` [Example 53], under setting [1], the EC50 is 23 nM.

`O=C(O)c1cc(C(F)(F)F)c2cc(N3CC[C@H](/C=C/c4c(-c5ccccc5C(F)(F)F)noc4C4CC4)C3)ccc2n1` [Example 146] returned an EC50 under setting [1] of 22 nM.

Compound `O=C(O)c1cc(OC(F)F)c2cc(N3CC4C(/C=C/c5c(-c6c(Cl)cncc6Cl)noc5C5CC5)C4C3)ccc2n1` (stereo not drawn) [Example 91] displayed an EC50 under setting [1] of 4 nM.

Regarding `O=C(O)c1cc(-c2ccc(N3CC(/C=C/c4c(-c5ccccc5C(F)(F)F)noc4C4CC4)C3)nc2)cc(C(F)(F)F)c1` [Example 225], the EC50 under setting [1] stood at 6 nM.

For `O=C(O)c1cc(F)c2nc(N3CCC(/C=C/c4c(C5CC5)nnn4-c4c(Cl)cccc4Cl)CC3)sc2c1` [Example 10, (E)-2-(4-(2-(4-Cyclopropyl-1-(2,6-dichlorophenyl)-1H-1,2,3-triazol-5-yl)vinyl)piperidin-1-yl)-4-fluorobenzo[d]thiazole-6-carboxylic acid], it took 64 nM to reach a half-maximal effect under setting [2] (EC50).

For `O=C(O)c1cc(O[C@H]2C[C@H](F)C2)c2cc(N3CC4C(/C=C/c5c(-c6c(Cl)cncc6Cl)noc5C5CC5)C4C3)ccc2n1` (stereo partly drawn) [Example 204], the EC50 under setting [1] is 19 nM.
